Values of other authors as cited in PMC13566764 (International Journal of Molecular Sciences, 2026).

Design: method as in https://pubchem.ncbi.nlm.nih.gov
Conditions: ref https://pubchem.ncbi.nlm.nih.gov

pKa: 8.33
SMILES: O=C1NC(=O)C(c2ccccc2)(c2ccccc2)N1 [Phenytoin, phenytoin]
